# Data from patent EP1219608A1, “PYRIMIDINE DERIVATIVES, PROCESS FOR PREPARING THE DERIVATIVES AND DRUGS CONTAINING THE SAME AS THE ACTIVE INGREDIENT” (ONO PHARMACEUTICAL CO., LTD., priority 1999, dated 2001).
# Molecular target: T1, human sputum elastase (HSE) (Homo sapiens, UniProt P08246)
# T1 construct: human sputum elastase (HSE); from tissue; host or cells: human sputum (from the enzyme's name only)
# T1 sequence (P08246 30-247 limits assumed): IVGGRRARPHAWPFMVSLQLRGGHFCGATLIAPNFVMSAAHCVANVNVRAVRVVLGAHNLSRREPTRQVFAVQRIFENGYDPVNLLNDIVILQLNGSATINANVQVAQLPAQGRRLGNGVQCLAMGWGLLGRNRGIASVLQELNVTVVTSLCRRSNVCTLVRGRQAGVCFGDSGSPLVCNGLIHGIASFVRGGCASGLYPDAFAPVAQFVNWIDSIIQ
# Assay: Inhibitory effects on human sputum elastase
# Format: biochemical
# Settings: pre-incubated at 37°C for 20 minutes; substrate MeO-Suc-Ala-Ala-Pro-Val-pNA, 37°C for 5 minutes; HEPES buffer (pH 8.0); pNA measured at 405 nm
# Method: (1) Inhibitory effects on human sputum elastase
# A mixture of 0.5 ml of 0.2 mM HEPES buffer (pH 8.0), 0.2 ml of 2.5 M aqueous solution of sodium chloride, 0.1 ml of 1% polyethyleneglycol 6000, 0.13 ml of distilled water, 0.01 ml of a solution of test compound in dimethylsulfoxide (DMSO) and 0.05 ml of 0.8 U/ml human sputum elastase (HSE) was pre-incubated at 37°C, for 20 minutes. 0.01 ml of 5 mM MeO-Suc-Ala-Ala-Pro-Val-pNA in DMSO was added to the above mixture and the mixture was incubated at 37°C for 5 minutes. The reaction was terminated by 0.1 ml of 50% acetic acid and then p-nitroanilide (pNA) released was measured spectrophotometrically at 405 nm. Percent inhibition of a compound was calculated by the following equation. Inhibition (%) = [1 - {delta OD (test-blank) / delta OD (control-blank)}] × 100 [formula]
structure (smiles),measurement,value
"CC(C)C(NC(=O)Cn1c(-c2ccccc2)ncc([N+](=O)[O-])c1=O)C(=O)c1nnc(C(C)(C)C)o1 (racemic) [Example 7(1), N-[(1RS)-1-(5-(t-butyl)-1,3,4-oxadiazol-2-ylcarbonyl)-2-methylpropyl]-2-[6-oxo-2-phenyl-5-nitro-1,6-dihydropyrimidin-1-yl]acetamide]",IC50,88 nM
